Data from PubChem BioAssay (NCI).
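Five concentrations, 48 hours, 96-well plates. TGI marks complete inhibition of growth.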

How the values were obtained:
Test in all cases: NCI tumour cell line growth inhibition, 48 h
786-0 renal = test system: 786-0 renal
A498 renal = test system: A498 renal
A549 NSCLC = test system: A549 NSCLC
ACHN renal = test system: ACHN renal
BT-549 breast = test system: BT-549 breast
CAKI-1 renal = test system: CAKI-1 renal
CCRF-CEM leukemia = test system: CCRF-CEM leukemia
COLO 205 colon = test system: COLO 205 colon
DU-145 prostate = test system: DU-145 prostate
EKVX NSCLC = test system: EKVX NSCLC
HCT-116 colon = test system: HCT-116 colon
HL-60(TB) leukemia = test system: HL-60(TB) leukemia
HOP-62 NSCLC = test system: HOP-62 NSCLC
HOP-92 NSCLC = test system: HOP-92 NSCLC
HS 578T breast = test system: HS 578T breast
HT29 colon = test system: HT29 colon
IGROV1 ovarian = test system: IGROV1 ovarian
K-562 leukemia = test system: K-562 leukemia
KM12 colon = test system: KM12 colon
LOX IMVI melanoma = test system: LOX IMVI melanoma
M14 melanoma = test system: M14 melanoma
MALME-3M melanoma = test system: MALME-3M melanoma
MCF7 breast = test system: MCF7 breast
MDA-MB-231 breast = test system: MDA-MB-231 breast
MDA-MB-435 = test system: MDA-MB-435
MDA-N = test system: MDA-N
MOLT-4 leukemia = test system: MOLT-4 leukemia
NCI-H226 lung = test system: NCI-H226 lung
NCI-H23 lung = test system: NCI-H23 lung
NCI-H522 lung = test system: NCI-H522 lung
NCI/ADR-RES ovarian = test system: NCI/ADR-RES ovarian
OVCAR-3 ovarian = test system: OVCAR-3 ovarian
OVCAR-5 ovarian = test system: OVCAR-5 ovarian
OVCAR-8 ovarian = test system: OVCAR-8 ovarian
PC-3 prostate = test system: PC-3 prostate
RPMI-8226 leukemia = test system: RPMI-8226 leukemia
RXF 393 renal = test system: RXF 393 renal
SF-268 CNS = test system: SF-268 CNS
SF-295 CNS = test system: SF-295 CNS
SK-MEL-2 melanoma = test system: SK-MEL-2 melanoma
SK-MEL-28 melanoma = test system: SK-MEL-28 melanoma
SK-MEL-5 melanoma = test system: SK-MEL-5 melanoma
SK-OV-3 ovarian = test system: SK-OV-3 ovarian
SN12C renal = test system: SN12C renal
SNB-75 CNS = test system: SNB-75 CNS
SR leukemia = test system: SR leukemia
SW-620 colon = test system: SW-620 colon
T-47D breast = test system: T-47D breast
TK-10 renal = test system: TK-10 renal
U251 CNS = test system: U251 CNS
UACC-257 melanoma = test system: UACC-257 melanoma
UACC-62 melanoma = test system: UACC-62 melanoma
UO-31 renal = test system: UO-31 renal
HCC-2998 colon = test system: HCC-2998 colon
HCT-15 colon = test system: HCT-15 colon
NCI-H460 lung = test system: NCI-H460 lung
OVCAR-4 ovarian = test system: OVCAR-4 ovarian
SF-539 CNS = test system: SF-539 CNS
SNB-19 CNS = test system: SNB-19 CNS

Structure (SMILES): COC(=O)c1cnn2c1n[n+]([O-])c1ccccc12
- TGI (786-0 renal): > 100 µM
- TGI (A498 renal): > 100 µM
- TGI (A549 NSCLC): > 100 µM
- TGI (ACHN renal): > 100 µM
- TGI (BT-549 breast): > 100 µM
- TGI (CAKI-1 renal): > 100 µM
- TGI (CCRF-CEM leukemia): > 100 µM
- TGI (COLO 205 colon): > 100 µM
- TGI (DU-145 prostate): > 100 µM
- TGI (EKVX NSCLC): > 100 µM
- TGI (HCT-116 colon): > 100 µM
- TGI (HL-60(TB) leukemia): > 100 µM
- TGI (HOP-62 NSCLC): > 100 µM
- TGI (HOP-92 NSCLC): > 100 µM
- TGI (HS 578T breast): > 100 µM
- TGI (HT29 colon): > 100 µM
- TGI (IGROV1 ovarian): > 100 µM
- TGI (K-562 leukemia): > 100 µM
- TGI (KM12 colon): > 100 µM
- TGI (LOX IMVI melanoma): > 100 µM
- TGI (M14 melanoma): > 100 µM
- TGI (MALME-3M melanoma): > 100 µM
- TGI (MCF7 breast): > 100 µM
- TGI (MDA-MB-231 breast): > 100 µM
- TGI (MDA-MB-435): > 100 µM
- TGI (MDA-N): > 100 µM
- TGI (MOLT-4 leukemia): > 100 µM
- TGI (NCI-H226 lung): > 100 µM
- TGI (NCI-H23 lung): > 100 µM
- TGI (NCI-H522 lung): > 100 µM
- TGI (NCI/ADR-RES ovarian): > 100 µM
- TGI (OVCAR-3 ovarian): > 100 µM
- TGI (OVCAR-5 ovarian): > 100 µM
- TGI (OVCAR-8 ovarian): > 100 µM
- TGI (PC-3 prostate): > 100 µM
- TGI (RPMI-8226 leukemia): > 100 µM
- TGI (RXF 393 renal): > 100 µM
- TGI (SF-268 CNS): > 100 µM
- TGI (SF-295 CNS): > 100 µM
- TGI (SK-MEL-2 melanoma): > 100 µM
- TGI (SK-MEL-28 melanoma): > 100 µM
- TGI (SK-MEL-5 melanoma): > 100 µM
- TGI (SK-OV-3 ovarian): > 100 µM
- TGI (SN12C renal): > 100 µM
- TGI (SNB-75 CNS): > 100 µM
- TGI (SR leukemia): > 100 µM
- TGI (SW-620 colon): > 100 µM
- TGI (T-47D breast): > 100 µM
- TGI (TK-10 renal): > 100 µM
- TGI (U251 CNS): > 100 µM
- TGI (UACC-257 melanoma): > 100 µM
- TGI (UACC-62 melanoma): > 100 µM
- TGI (UO-31 renal): > 100 µM

Structure (SMILES): COC(=O)c1c(OC(C)=O)ccc2c1c1c(OC(C)=O)c3ccccc3c(OC(C)=O)c1n2Cc1ccccc1
- TGI (786-0 renal): 37.2 µM
- TGI (A498 renal): 43.8 µM
- TGI (A549 NSCLC): 34.2 µM
- TGI (ACHN renal): 47.1 µM
- TGI (BT-549 breast): 28.8 µM
- TGI (CAKI-1 renal): 27.9 µM
- TGI (CCRF-CEM leukemia): 45 µM
- TGI (COLO 205 colon): 15.6 µM
- TGI (DU-145 prostate): 45.5 µM
- TGI (EKVX NSCLC): 10.4 µM
- TGI (HCC-2998 colon): 5.22 µM
- TGI (HCT-116 colon): 11.5 µM
- TGI (HCT-15 colon): 14.7 µM
- TGI (HL-60(TB) leukemia): 26.6 µM
- TGI (HOP-62 NSCLC): 25.4 µM
- TGI (HOP-92 NSCLC): 3.27 µM
- TGI (HS 578T breast): > 50 µM
- TGI (HT29 colon): 31.5 µM
- TGI (IGROV1 ovarian): 19.7 µM
- TGI (K-562 leukemia): > 50 µM
- TGI (KM12 colon): 5.65 µM
- TGI (M14 melanoma): 17.2 µM
- TGI (MALME-3M melanoma): 22.6 µM
- TGI (MCF7 breast): > 50 µM
- TGI (MDA-MB-231 breast): 37.2 µM
- TGI (MDA-MB-435): 27.9 µM
- TGI (MDA-N): 41.1 µM
- TGI (MOLT-4 leukemia): > 50 µM
- TGI (NCI-H226 lung): > 50 µM
- TGI (NCI-H23 lung): 18.3 µM
- TGI (NCI-H460 lung): > 50 µM
- TGI (NCI-H522 lung): 3.4 µM
- TGI (NCI/ADR-RES ovarian): 46.6 µM
- TGI (OVCAR-3 ovarian): 3.52 µM
- TGI (OVCAR-4 ovarian): 29.6 µM
- TGI (OVCAR-5 ovarian): 19.8 µM
- TGI (OVCAR-8 ovarian): > 50 µM
- TGI (PC-3 prostate): 32 µM
- TGI (RPMI-8226 leukemia): 5.4 µM
- TGI (RXF 393 renal): > 50 µM
- TGI (SF-268 CNS): 19.4 µM
- TGI (SF-295 CNS): 10.9 µM
- TGI (SF-539 CNS): 4.04 µM
- TGI (SK-MEL-2 melanoma): 6.81 µM
- TGI (SK-MEL-28 melanoma): 33.5 µM
- TGI (SK-MEL-5 melanoma): 9.47 µM
- TGI (SK-OV-3 ovarian): 19.5 µM
- TGI (SN12C renal): > 50 µM
- TGI (SNB-19 CNS): > 50 µM
- TGI (SNB-75 CNS): 6.61 µM
- TGI (SR leukemia): > 50 µM
- TGI (T-47D breast): 10.5 µM
- TGI (TK-10 renal): > 50 µM
- TGI (U251 CNS): 17.3 µM
- TGI (UACC-257 melanoma): > 50 µM
- TGI (UACC-62 melanoma): 20.3 µM
- TGI (UO-31 renal): 24.7 µM
